Article PMC5343580, “Antimicrobial peptide cWFW kills by combining lipid phase separation with autolysis” (Scientific Reports, 2017)
In brackets after ≈: the same amount, converted by molar mass. Peptide text beside a SMILES is read from it.

Columns and labels:
[1] = tested on: B. subtilis KS19 (ΔlytABCDEF); experiment: Cell lysis (optical density) in autolysin-deficient strain; assay type: cell-based, Bacillus subtilis; details: different concentrations, three replicate cultures
B. subtilis 168 [2] = experiment: Membrane potential measurement with DiSC3(5); assay type: cell-based, Bacillus subtilis
Method: Peptide-induced changes in membrane potential were measured using the voltage-sensitive fluorescent dye DiSC3(5). In aqueous solution DiSC3(5) emits strong fluorescence which is quenched upon accumulation in polarised cells. Upon depolarisation, DiSC3(5) is released from the cell resulting in an increased fluorescence due to de-quenching. B. subtilis 168 was grown at 37 °C to mid-log phase and diluted in LB medium to OD600 0.2. After centrifugation for 1 min at 16,500 rpm, the supernatant was removed and cells carefully resuspended in 1 ml fresh pre-warmed LB containing 0.1 mg/ml BSA. Subsequently, 140 μl aliquots of the cell suspension were transferred into a 96 well microtiter plate and allowed to settle. 10 μl of 15 μM DiSC3(5) in LB/15% DMSO were added to the wells to give a final DiSC3(5) concentration of 1 μM. Cellular accumulation (quenching) of DiSC3(5) was monitored until the signal had reached stable fluorescence levels. The peptides were added at desired concentrations at 5 μl/well, and the resulting changes in DiSC3(5) fluorescence were analysed for at least 20 min using a Fluostar Optima, BMG Labtech. Solutions, plates and instruments were warmed to 37 °C prior to use.

B. subtilis 168 [3] = experiment: Membrane fluidity in cells (laurdan GP); assay type: cell-based, Bacillus subtilis
Description: Membrane fluidity was investigated with the small hydrophobic fluorescent dye laurdan, which integrates into cellular membranes and detects changes related to the lipid packing of the surrounding bilayer. The resulting changes in the fluorescence emission spectrum can be detected either spectroscopically or with fluorescence microscopy. A mathematical quantification of the emission shift is achieved by calculation of the laurdan GP (generalised polarisation) with GP = (I435 − I490)⁄(I435 + I490).
B. subtilis 168 cells were grown to OD600 ~ 0.5 in LB/0.1% glucose and incubated with 10 μM laurdan for 5 min, shaking in the dark. […] The supernatant removed from the cells after the last washing step served as background for laurdan fluorescence not associated with cells. […] All samples were shaken briefly before fluorescence detection at 435 ± 5 nm and 490 ± 5 nm (upon excitation at 350 ± 10 nm) on a plate reader (Fluostar Optima, BMG Labtech). Laurdan fluorescence was monitored for at least 20 min. […] Laurdan fluorescence in liposomes was recorded using an LS 50B spectrofluorometer (Perkin-Elmer Corp., Germany). […] Laurdan fluorescence was detected separately at 435 and 500 nm, respectively. The average of three measurements for each preparation was calculated to determine corresponding laurdan GP values. […]

human cells = details: cited from earlier work
Description: Antimicrobial peptides (AMPs) have been in the focus of research attention as a promising alternative for conventional antibiotics. The subclass of arginine- and tryptophan-rich peptides, with cationic charge and hydrophobic residues, provides the ideal structural prerequisite for interaction with the negatively charged bacterial membranes. To elucidate optimal structure-activity properties we screened a library of small synthetic peptides derived from the active motif of human antimicrobial peptide lactoferricin[3]. This analysis identified the cyclic hexapeptide cWFW (cyclo-RRRWFW) as ...

B. subtilis 168/DSM 402 [4] = experiment: Ion analysis (ICP-OES); assay type: cell-based, Bacillus subtilis; details: 15 min incubation with 8 μM, BMM, three independent measurements
Method: Only metal-free plastic ware and ultrapure water (Bernd Kraft) were used. All centrifugation steps were reduced to 2 min to reduce sample handling time. Cultures were adjusted to OD500 = 0.4 prior to antibiotic exposure to ensure equal cell count in each sample. Samples were prepared as described by Wenzel et al.[13]. Briefly, B. subtilis 168/DSM402 was grown in BMM until early exponential growth phase. For determination of ion concentrations, subcultures were incubated with 8 μM cWFW for 15 min, followed by cell harvest by centrifugation, washed twice in TE buffer (100 mM Tris-HCl, 1 mM EDTA, pH 7.5) and once in the same buffer without EDTA. The obtained cell pellets were digested in 65% nitric acid (Bernd Kraft) at 80 °C for 16 h. Prior to element analysis, samples were diluted with ultrapure water to a final nitric acid concentration of 10%. Element concentrations were determined by inductively-coupled plasma atomic emission spectroscopy using an iCAP* 6300 Duo View ICP Spectrometer (Thermo Fisher Scientific) as described before. […] Element concentrations were converted into intracellular ion concentrations based on the B. subtilis cellular volume, which was taken as 3 × 10^–9 μl based on average rod size determined by cryo-electron microscopy images by Matias and Beveridge[64][65].

B. subtilis 168 [5] = experiment: ATP measurement (luciferase-based luminescence); assay type: cell-based, Bacillus subtilis; details: 20 min incubation with 4, 8, and 12 μM; p ≥ 0.05; three independent replicates
Method: For the determination of cellular ATP levels samples were incubated with increasing concentration of cWFW for 20 min, followed by flash-freeze in liquid N2 in order to stop metabolism. Cell lysis and measurement of cell ATP levels were carried out using ATP bioluminescence Assay Kit HSII (Roche Applied Science) following manufacturer’s instructions using a BMG Fluostar Optima luminometer. The measured luminescence was calibrated with a serial dilution of ATP and triplicate samples were equalised against the optical density of the corresponding cell suspensions.

B. subtilis 168 [6] = assay type: cell-based, Bacillus subtilis; details: 168, 18 h
Method: (§1) Cells were inoculated from an overnight culture 1:100 and grown to mid-log phase (OD600 = 0.2–0.4). Unless stated otherwise, all experiments were carried out in LB medium at 37 °C. Cell numbers were determined using a Petroff-Hausser counting chamber: OD600 = 1 corresponds to 8.8 × 10^7 CFU/ml B. subtilis. Further information on strains, conditions of gene induction, and minimal inhibitory concentration are listed in Supplementary Table 4.
(§2) The minimal inhibitory concentration (MIC), which is defined as the lowest concentration able to inhibit growth of a microorganism in vitro[59], was analysed as described before. Briefly, bacteria were grown to mid-log phase and diluted in growth medium to give a final cell number of 5 × 10^5 cells/well in 96 well microtiter plates. A microdilution technique was applied where small volumes of peptide solutions were added in a serial dilution ranging from 100 to 0.05 μM. Cells were cultivated for 18 hours, 37 °C, 180 rpm, followed by photometrical detection of the optical density using a microplate reader (Tecan). Peptide concentrations were tested in triplicates in three independent experiments.

B. subtilis SDB206 = assay type: cell-based, Bacillus subtilis; details: ywiE::neo clsB::spc clsA::ery (CL-deficient), determined in LB
Method: as §1, §2

B. subtilis HB5343 = assay type: cell-based, Bacillus subtilis; details: psd::ery (PE-deficient), determined in LB
Method: as §1, §2

B. subtilis 168/DSM 402 [7] = experiment: Cytosolic proteome response profile (radioactive pulse-labelling, 2D-PAGE); assay type: cell-based, Bacillus subtilis; details: 8 μM cWFW, BMM
Method: To identify which cellular processes are disturbed by cWFW, we performed proteomic profiling of the Gram-positive model organism B. subtilis (Fig. 1). This technique combines radioactive pulse-labeling of newly synthesised proteins with two-dimensional SDS PAGE, thus providing insight into the acute antibiotic stress response.
(§3) B. subtilis 168/DSM402 was grown in chemically defined Belitzky minimal medium (BMM)[61]. Cultures were incubated at 37 °C under steady agitation. Minimal inhibitory concentrations (MIC) were determined as described previously. In growth experiments, exponentially growing cultures were exposed to a concentration range of peptide (Supplementary Figure 1)[62]. For physiological stress experiments, concentrations were chosen that led to 50% reduction of the growth rate. For proteomic profiling, as well as for all follow up experiments performed under the same growth conditions, 8 μM cWFW were used.
Radioactive labelling of newly synthesised proteins and subsequent separation of the cytosolic proteome by two-dimensional polyacrylamide gel electrophoresis (2D-PAGE) was performed as previously described. Analytical gel images were analysed as described by Raatschen & Bandow[63] using Decodon Delta 2D 4.1 image analysis software. […] Protein spots were identified by MALDI-ToF/ToF or nanoUPLC-ESI-MS/MS using a Synapt G2-S HDMS mass spectrometer equipped with a lock spray source for electrospray ionisation and a ToF detector (Waters) as previously reported (Supplementary Tables 2 and 3)[62].

B. subtilis 168/DSM402 = assay type: cell-based, Bacillus subtilis
Method: as §3

For `N=C(N)NCCC[C@@H]1NC(=O)[C@H](CCCNC(=N)N)NC(=O)[C@H](Cc2c[nH]c3ccccc23)NC(=O)[C@H](Cc2ccccc2)NC(=O)[C@H](Cc2c[nH]c3ccccc23)NC(=O)[C@H](CCCNC(=N)N)NC1=O` [cWFW, cyclo(RRRWFW)] (cyclo(FWRRRW)), the “lysis triggered by cWFW in the absence of major autolysins LytCDEF” value [1] was “fully abolished”, the “membrane depolarisation (DiSC3(5) fluorescence)” value (B. subtilis 168 [2]; growth-inhibitory concentrations (8 μM) and above, LB, 37 °C, three independent replicates) was “very low compared to that of the positive control KLA-1” and the “time until membrane potential was restored almost to control levels” value (B. subtilis 168 [2]; growth-inhibitory concentrations (8–12 μM)) was ≤ 10 min. For the same compound, the “time until reduction of membrane fluidity reaches a steady state” value (B. subtilis 168 [3]; 6 μM, time-resolved laurdan GP) was ≤ 2 min, the “change of laurdan generalised polarisation (GP) in cells” value (B. subtilis 168 [3]; 10 min incubation with increasing concentrations, high GP = low membrane fluidity, three replicates) was “clear concentration-dependent increase in laurdan generalised polarisation (GP)” and the “toxicity towards human cells” value (human cells) was “not toxic towards human cells”. The “change in cellular K+ content” value (B. subtilis 168/DSM 402 [4]) was “accumulation of K^+”, the “leakage of cellular ions” value (B. subtilis 168/DSM 402 [4]) was “no leakage of cellular ions was observed” and the “change of ATP levels” value (B. subtilis 168 [5]) was “No significant changes”. For the same compound, the MIC (B. subtilis 168 [6]) was 6 µM (≈ 5.93 µg/mL), the MIC (B. subtilis SDB206) was 6 µM (≈ 5.93 µg/mL) and the MIC (B. subtilis HB5343) was 6 µM (≈ 5.93 µg/mL). The “induction factor of protein AcsA” value (B. subtilis 168/DSM 402 [7]) was 3.7, the “induction factor of protein CitZ” value (B. subtilis 168/DSM 402 [7]) was 3.5 and the “induction factor of protein ClpC” value (B. subtilis 168/DSM 402 [7]) was 5.4. The “induction factor of protein ClpP” value (B. subtilis 168/DSM 402 [7]) was 4.8, the “induction factor of protein DltA” value (B. subtilis 168/DSM 402 [7]) was 4.2 and the “induction factor of protein Dps” value (B. subtilis 168/DSM 402 [7]) was 5.2. The “induction factor of protein FbaA” value (B. subtilis 168/DSM 402 [7]) was 2.9, the “induction factor of protein FosB” value (B. subtilis 168/DSM 402 [7]) was 8.3 and the “induction factor of protein GroEL” value (B. subtilis 168/DSM 402 [7]) was 3.9. The “induction factor of protein GsiB” value (B. subtilis 168/DSM 402 [7]) was 8.4, the “induction factor of protein GtaB” value (B. subtilis 168/DSM 402 [7]) was 3.2 and the “induction factor of protein IspH” value (B. subtilis 168/DSM 402 [7]) was 19.0. For the same compound, the “induction factor of protein LiaH” value (B. subtilis 168/DSM 402 [7]) was 16.6, the “induction factor of protein LuxS” value (B. subtilis 168/DSM 402 [7]) was 3.4 and the “induction factor of protein MinD” value (B. subtilis 168/DSM 402 [7]) was 3.1. The “induction factor of protein NadE” value (B. subtilis 168/DSM 402 [7]) was 11.0, the “induction factor of protein NfrA” value (B. subtilis 168/DSM 402 [7]) was 5.7 and the “induction factor of protein OhrB” value (B. subtilis 168/DSM 402 [7]) was 4.4. The “induction factor of protein PepF” value (B. subtilis 168/DSM 402 [7]) was 3.6, the “induction factor of protein PspA” value (B. subtilis 168/DSM 402 [7]) was 9.5 and the “induction factor of protein PurH” value (B. subtilis 168/DSM 402 [7]) was 3.4. The “induction factor of protein RacX” value (B. subtilis 168/DSM 402 [7]) was 12.0, the “induction factor of protein SalA” value (B. subtilis 168/DSM 402 [7]) was 3.5 and the “induction factor of protein SodA” value (B. subtilis 168/DSM 402 [7]) was 3.0. For the same compound, the “induction factor of protein SpoVG” value (B. subtilis 168/DSM 402 [7]) was 2.4, the “induction factor of protein TpiA” value (B. subtilis 168/DSM 402 [7]) was 5.8 and the “induction factor of protein Tpx” value (B. subtilis 168/DSM 402 [7]) was 4.1. For the same compound, the “induction factor of protein YceC” value (B. subtilis 168/DSM 402 [7]) was 9.9, the “induction factor of protein YdaG” value (B. subtilis 168/DSM 402 [7]) was 5.6 and the “induction factor of protein YdbD” value (B. subtilis 168/DSM 402 [7]) was 19.4. For the same compound, the “induction factor of protein YfhM” value (B. subtilis 168/DSM 402 [7]) was 5.8, the “induction factor of protein YjdA” value (B. subtilis 168/DSM 402 [7]) was 3.4 and the “induction factor of protein YkaA” value (B. subtilis 168/DSM 402 [7]) was 4.6. For the same compound, the “induction factor of protein YoxD” value (B. subtilis 168/DSM 402 [7]) was 7.1, the “induction factor of protein YpuA” value (B. subtilis 168/DSM 402 [7]) was 4.0 and the “induction factor of protein YqiW” value (B. subtilis 168/DSM 402 [7]) was 2.4. The “induction factor of protein YqkF” value (B. subtilis 168/DSM 402 [7]) was 7.7, the “induction factor of protein YthP” value (B. subtilis 168/DSM 402 [7]) was 5.9 and the “induction factor of protein YvlB” value (B. subtilis 168/DSM 402 [7]) was 9.0. For the same compound, the “induction factor of protein YvyD” value (B. subtilis 168/DSM 402 [7]) was 6.2, the “induction factor of protein YwjI” value (B. subtilis 168/DSM 402 [7]) was 6.4 and the “induction factor of protein YwrO” value (B. subtilis 168/DSM 402 [7]) was 4.3. The MIC (B. subtilis 168/DSM402) was 8 µM (≈ 7.91 µg/mL).
